# Legend:
# [1] = test system: cotton Variety Oxford; assay: Greenhouse trial for desiccation in cotton; type: in vivo; settings: foliar spray 100 L/ha, seven days after application
# Method: (§1) The trial was established under greenhouse conditions. The objective was to evaluate the dessication activity of saflufenacil solo and in mixture with cyclanilide and ethephon.
# (§2) The plants (soybean variety Maxi, cotton Variety Oxford) were sown (Dec. 3, 2012) in pots with 8.5 cm of diameter using standard soil from Limburgerhof, Palatinate, Germany, emerging after 3 days, maintained during the entire growth period at temperatures of about 20 to 24° C., relative humidity of about 65 to 70%, watering in the afternoon or in the morning. Each treatment was composed by 4 replications (one plant per pot).
# (§3) Foliar treatments were applied 51 days after sowing (Jan. 23, 2013) in a spray cabin with one Flat fan nozzle, using 100 L/ha as application volume. The spray solutions were prepared according to the given concentration of Tables 1 and 2 and contained in addition to the formulations used a surfactant (DASH HC, BASF S.A., Brazil; EC formulation based on methyl esters) at 0,5% (v/v).
# (§4) Saflufenacil (70% (w/w), WG formulation; Sharpen® BASF Corporation, USA)
# (§5) Ethephon (480 g/L, SL formulation)
# (§6) Cyclanilide, (300 g/kg, WP formulation)
# (§7) Assessments were made at three days after applicaton in soybean and seven days after application in cotton by evaluating percentage of symptoms of damage to the crop, mainly chlorosis and necrosis.
# [2] = test system: soybean variety Maxi; assay: Greenhouse trial for desiccation in soybean; type: in vivo; settings: foliar spray 100 L/ha, three days after application
# Method: as §1, §2, §3, §4, §5, §6, §7
# [3] = 20 g of a.i. per 100 L, percentage of symptoms of damage
# [4] = 1.5 g of a.i. per 100 L, percentage of symptoms of damage
# [5] = 1.4 g of a.i. per 100 L, percentage of symptoms of damage (chlorosis and necrosis)
smiles,measurement,setting,value
O=P(O)(O)CCCl [Ethephon],Observed activity (%),[1]; [3],0%
same,Observed activity (%),[2]; [3],0%
O=C(O)C1(C(=O)Nc2ccc(Cl)cc2Cl)CC1 [Cyclanilide],Observed activity (%),[1]; [4],0%
same,Observed activity (%),[2]; [4],0%
CC(C)N(C)S(=O)(=O)NC(=O)c1cc(-n2c(=O)cc(C(F)(F)F)n(C)c2=O)c(F)cc1Cl [Saflufenacil],Observed activity (%),[1]; [5],18.8%
same,Observed activity (%),[2]; [5],15%
